The source of these data is US5196513A, “Synthetic peptides derived from the beta-subunit of human thyroid stimulating hormone” (Mayo Foundation for Medical Education and Research, priority 1991, dated 1993).

The target of assay [1] is T1, TSH receptor on human thyroid membranes (Homo sapiens, UniProt P16473).
T1 construct: Crude membrane preparations were prepared from the frozen tissue; from tissue; host or cells: human thyroid tissue (Graves' disease patients), crude 2000 x g membrane fraction
In words: Human thyroid membrane TSH radio-receptor assay (inhibition of 125I-bTSH binding). As to conditions: for EC50: concentration inhibiting 125I-bTSH binding to human thyroid membrane by 50%, mean ± se of at least 3 assays; for Inhibition of TSH binding to human thyroid membrane (in words): human thyroid membrane RRA. Here is the method:
Thyroid tissue from patients with Graves' disease was obtained at surgery and promptly frozen and maintained at -70° C. Crude membrane preparations were prepared from the frozen tissue as previously described, Takahashi et al., J. Clin. Endocrinol. Metab., 47:870-876 (1978), the disclosure of which is incorporated by reference herein. Briefly, the tissue was homogenized with a Polytron homogenizer (Brinkmann Instruments,Westbury, N.Y.), and the 2000×g fraction was collected by centrifugation, washed, and resuspended in 40 mM Tris, 200 mM sucrose, pH 7.4. Membrane preparations were maintained at -70° C. until assay.
(§1) Highly purified bTSH (30 U/mg, supplied by Dr. J. G. Pierce, formerly of UCLA) was radio-iodinated (Na^125 I, Amersham, Chicago) by a lactoperoxidase technique to a specific activity averaging 40-50 μCi/μg as previously described, Takahashi et al., supra, then purified by Sephadex G-100 chromatography.
(§2) The TSH radio-receptor assay (RRA) utilized for the studies has been well described previously; see Takahashi et al., supra and Morris et al., Endocrinology, 123:456-462 (1988), the disclosure of which is incorporated by reference herein. Briefly, for either human or porcine thyroid RRA, the incubation mixture consisted of the following: 10 mg equivalents of wet weight (mg eq) crude thyroid membrane preparation, 0.124 ng [^125 I]iodo-bTSH (approximately 20,000 cpm), 0.2% Triton X-100, and the noted amounts of synthetic peptides or unlabeled bTSH in 0.5 ml 40 mM Tris, 0.1% BSA, pH 7.4. Bound label was separated from free after 2 hrs incubation at 25° C. by addition of a 1 ml 30% polyethylene glycol (PEG, Baker, Phillipsburg, N.J.) 6000 in 1M NaCl and centrifugation. The resulting pellet was counted in a gamma counter. Non-specific binding was determined by addition of a 100 mU/ml crude bTSH (Sigma, St. Louis).

Assay [2] concerns the target T2, porcine TSH receptor (porcine thyroid membranes) (Sus scrofa, UniProt Q8SPP9).
T2 construct: Frozen porcine thyroid glands were purchased; tissue Pel-Freez Biologicals; host or cells: porcine thyroid glands, crude membrane preparation
In words: Porcine thyroid membrane TSH radio-receptor assay (inhibition of 125I-bTSH binding). As to conditions: concentration inhibiting 125I-bTSH binding to porcine thyroid membrane by 50%; mean ± se of at least 3 assays.
Excerpt: (§3) Frozen porcine thyroid glands were purchased (Pel-Freez Biologicals, Rogers, Ak.) and prepared using the same procedures as for the human glands.
as §1, §2

Assay [3] concerns the target T3, FRTL5 cells (Rattus norvegicus, UniProt P21463). In words: TSH bioassay, inhibition of TSH-mediated cAMP generation in FRTL5 cells. The class given is cell-based. How it is done: (§4) FRTL5 cells were cultured in Hams F-12 medium supplemented with 5% calf serum and a preparation containing 6 hormones (6H), including 10 mU/ml bTSH (Sigma, St. Louis, Mo.), as previously described. Ambesi-Impiombato et al., Proc. Natl. Acad. Sci. U.S.A., 77:3455 (1980), the disclosure of which is incorporated by reference herein. The cells were enzymatically removed from flasks and plated in 24 well plates containing 6H at a density of 150,000 cells per well. After 4 days, the cells were washed and the media replaced with media containing insulin only (1H). All subsequent assays were performed on cells deprived of TSH for 5-7 days.
The TSH bioassay was a modification of assays previously described by Bidey et al., J. Endocrinol., 101:269 (1984); and Kasagi et al., ACTA Endocrinol., 115:30 (1987). FRTL5 cells were washed with NaCl-free Hanks balanced salt solution (NaCl-free HBSS) pH 7.3. The cells were then exposed to purified bovine TSH (bTSH) (a gift from Dr. John Pierce, formerly of UCLA) in the presence and absence of specific β-subunit peptides in NaCl-free HBSS with 0.5 mM isobutylmethylxanthine (IBMX, Sigma, St. Louis, Mo.) and 0.5% BSA (Sigma). The total volume in each well was 275 μl. In stimulation assays, only the β-subunit peptides were added. For inhibition assays, two different concentrations of the β-subunit peptides were added to culture wells in duplicate with 200 mU/I of purified bTSH. The plates were incubated for 2 hours at 37° C. in 5% CO2. The media was removed from the cells and a portion diluted 1:50 in 0.05M NaOAc buffer, pH 6.2. A 25 μl aliquot of this was used in a cAMP RIA. Basal cAMP levels were determined in the absence of the TSH or β-subunit peptides. In inhibition assays, the percent inhibition was calculated as noted below (see Morris et al., (1988) supra): [formula]

Assay [4] has as its target T3, FRTL5 cells. In words: TSab bioassay, inhibition of TSab-stimulated cAMP generation in FRTL5 cells. It counts as cell-based. The settings on record: for Serum samples in which TSab-stimulated cAMP was significantly inhibited (p<0.05) / samples tested: peptide 150 μg/ml; for Inhibition of TSab-stimulated cAMP generation (in words): peptide 50 and 150 μg/ml. How it is done:
as §4
Serum samples from 15 patients with elevated TSab levels were selected from the clinical chemistry laboratory. The TSab values, expressed as an index, [formula] 63:707 (1988)]ranged from 10-20 with an average of 13.8±3.3. Normal serum has an index of less than 1.3.
The bioassay described by Kasagi et al., supra, with modifications as previously noted above, was used. The immunoglobulins were precipitated from 2 ml of TSab-containing serum with 6 ml of polyethylene glycol 6,000 (Baker; Phillipsburg, N.J.), centrifuged at 3,000×g for 20 minutes, and resuspended in 4 ml of NaCl-free HBSS with 0.5 mM IBMX and 0.5% BSA. The plated cells were washed with NaCl-free HBSS and the crude immunoglobulin extract, mixed with various concentrations of β-subunit peptides, was added in duplicate to the wells (total volume 200 μl/well). The cells were incubated for 2 hours at 37° C. and 5% CO2. The samples were then removed from the cells and a portion diluted 1:50 in NaOAc buffer, pH 6.2. A 25 μl aliquot of this was then used in a cAMP RIA as described above. The basal cAMP levels were determined for each plate of cells in the absence of immunoglobulin extract and β-peptides. A maximal cAMP level was attained by stimulating the cells with the immunoglobulin extract only. The percent increase in cAMP levels above basal was calculated as: [formula] as previously described (see Morris et al., supra). The percent inhibition of cAMP production by the β-subunit peptides was calculated as described above for TSH-stimulated cells, substituting pmol cAMP crude immunoglobulin for pmol cAMP TSH.
Inhibition of TSab activity was tested by comparing the replicates of cAMP levels generated in the presence of peptide to those generated by TSab alone using Student's T test for unpaired samples. Mean inhibition by the various doses of synthetic peptide for the patient group was tested by comparison with maximum cAMP response within each patient sample using the T test for paired samples.

Assay [5] concerns the target T4, EGF thyroid membrane receptor (Sus scrofa, UniProt A0A5G2R2I8).
T4 construct: The incubation mixture consisted of 40 mg eq crude thyroid membrane; tissue Pel-Freez Biologicals; host or cells: porcine thyroid glands, crude membrane preparation
As to the kind of experiment: Porcine thyroid membrane epidermal growth factor radio-receptor assay. The class given is binding. As to conditions: [125I]iodo-EGF, read-out: EC50 of unlabeled EGF in EGF RRA. How it is done: as §3
The EGF RRA was a modification of that described by Humphries et al., J. Endocrinol., 102:857-61 (1984), the disclosure of which is incorporated by reference herein. Purified murine EGF (a gift of Dr. N. S. Jiang, Mayo Clinic) was radio-iodinated by a chloramine-T technique to a specific activity of 65 μCi/μg. The incubation mixture consisted of 40 mg eq crude thyroid membrane, 0.5 ng [^125 I]iodo-EGF, and the indicated concentrations of unlabeled EGF or synthetic peptides in 0.5 ml phosphate buffered saline plus 5 mM MgCl2, 1 mM CaCl2, 0.1% BSA, pH 7.4. Non-specific binding was determined by addition of 0.5 μg unlabeled EGF. Bound was separated from free by precipitation with PEG and centrifugation as above.

Residues, ends and D or L forms follow the SMILES beside them.

T1 sequence (P16473 21-764): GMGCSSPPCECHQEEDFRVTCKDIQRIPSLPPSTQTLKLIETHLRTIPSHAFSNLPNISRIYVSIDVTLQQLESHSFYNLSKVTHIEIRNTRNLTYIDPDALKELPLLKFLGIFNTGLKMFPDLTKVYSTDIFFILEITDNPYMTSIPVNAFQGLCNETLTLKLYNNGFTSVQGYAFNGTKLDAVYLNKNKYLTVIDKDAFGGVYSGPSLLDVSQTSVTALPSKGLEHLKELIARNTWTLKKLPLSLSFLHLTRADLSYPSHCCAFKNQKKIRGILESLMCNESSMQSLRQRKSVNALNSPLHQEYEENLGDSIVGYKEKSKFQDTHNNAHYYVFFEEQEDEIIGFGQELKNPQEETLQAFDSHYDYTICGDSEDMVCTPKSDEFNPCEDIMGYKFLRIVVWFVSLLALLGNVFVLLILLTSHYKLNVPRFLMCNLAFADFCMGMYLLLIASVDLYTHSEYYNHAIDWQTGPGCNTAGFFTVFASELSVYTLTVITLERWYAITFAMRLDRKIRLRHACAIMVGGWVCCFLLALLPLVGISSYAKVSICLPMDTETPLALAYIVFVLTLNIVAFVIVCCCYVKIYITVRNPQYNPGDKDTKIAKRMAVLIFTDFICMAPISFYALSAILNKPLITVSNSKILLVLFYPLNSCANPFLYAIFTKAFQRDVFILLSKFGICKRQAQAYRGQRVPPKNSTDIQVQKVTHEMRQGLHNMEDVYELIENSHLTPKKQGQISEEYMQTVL
T3 sequence (P21463 22-764): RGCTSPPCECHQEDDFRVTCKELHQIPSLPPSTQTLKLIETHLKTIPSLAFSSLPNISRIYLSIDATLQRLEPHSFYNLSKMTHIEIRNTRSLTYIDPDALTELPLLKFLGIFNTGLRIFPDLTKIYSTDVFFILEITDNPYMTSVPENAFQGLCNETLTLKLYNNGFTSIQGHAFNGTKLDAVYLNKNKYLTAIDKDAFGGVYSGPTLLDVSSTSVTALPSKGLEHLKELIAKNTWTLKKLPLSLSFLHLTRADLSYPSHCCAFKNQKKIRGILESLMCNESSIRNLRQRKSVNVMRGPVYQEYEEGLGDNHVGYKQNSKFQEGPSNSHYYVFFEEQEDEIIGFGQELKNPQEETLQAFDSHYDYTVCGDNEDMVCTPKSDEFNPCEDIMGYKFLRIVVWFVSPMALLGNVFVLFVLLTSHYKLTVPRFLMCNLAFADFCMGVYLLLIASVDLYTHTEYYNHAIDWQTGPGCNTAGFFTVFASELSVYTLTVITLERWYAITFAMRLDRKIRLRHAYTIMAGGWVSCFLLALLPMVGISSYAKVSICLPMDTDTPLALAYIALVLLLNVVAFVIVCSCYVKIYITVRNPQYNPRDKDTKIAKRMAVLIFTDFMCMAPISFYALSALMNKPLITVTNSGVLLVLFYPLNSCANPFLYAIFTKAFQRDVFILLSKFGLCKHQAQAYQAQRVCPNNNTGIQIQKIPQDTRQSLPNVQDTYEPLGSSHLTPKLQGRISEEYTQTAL
T2 sequence (Q8SPP9 22-764): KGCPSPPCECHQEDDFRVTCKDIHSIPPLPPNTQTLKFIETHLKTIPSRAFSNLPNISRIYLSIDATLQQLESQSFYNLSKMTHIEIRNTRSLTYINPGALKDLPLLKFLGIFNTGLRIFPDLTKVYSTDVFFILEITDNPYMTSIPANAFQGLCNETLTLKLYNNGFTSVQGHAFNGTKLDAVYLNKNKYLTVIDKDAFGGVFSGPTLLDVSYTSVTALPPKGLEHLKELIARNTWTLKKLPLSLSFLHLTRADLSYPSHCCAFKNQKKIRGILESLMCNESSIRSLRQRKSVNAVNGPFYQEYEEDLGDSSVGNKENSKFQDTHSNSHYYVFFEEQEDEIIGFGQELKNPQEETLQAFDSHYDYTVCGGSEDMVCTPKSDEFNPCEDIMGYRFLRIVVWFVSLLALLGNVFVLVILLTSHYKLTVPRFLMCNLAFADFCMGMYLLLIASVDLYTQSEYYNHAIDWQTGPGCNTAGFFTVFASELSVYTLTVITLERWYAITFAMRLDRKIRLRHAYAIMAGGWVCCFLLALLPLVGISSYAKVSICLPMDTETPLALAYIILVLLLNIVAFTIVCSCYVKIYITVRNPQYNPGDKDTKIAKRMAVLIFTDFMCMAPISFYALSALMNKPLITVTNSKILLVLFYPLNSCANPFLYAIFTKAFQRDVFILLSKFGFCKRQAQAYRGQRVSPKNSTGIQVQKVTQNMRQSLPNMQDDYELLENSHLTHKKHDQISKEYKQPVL
T4 sequence (A0A5G2R2I8 22-1210): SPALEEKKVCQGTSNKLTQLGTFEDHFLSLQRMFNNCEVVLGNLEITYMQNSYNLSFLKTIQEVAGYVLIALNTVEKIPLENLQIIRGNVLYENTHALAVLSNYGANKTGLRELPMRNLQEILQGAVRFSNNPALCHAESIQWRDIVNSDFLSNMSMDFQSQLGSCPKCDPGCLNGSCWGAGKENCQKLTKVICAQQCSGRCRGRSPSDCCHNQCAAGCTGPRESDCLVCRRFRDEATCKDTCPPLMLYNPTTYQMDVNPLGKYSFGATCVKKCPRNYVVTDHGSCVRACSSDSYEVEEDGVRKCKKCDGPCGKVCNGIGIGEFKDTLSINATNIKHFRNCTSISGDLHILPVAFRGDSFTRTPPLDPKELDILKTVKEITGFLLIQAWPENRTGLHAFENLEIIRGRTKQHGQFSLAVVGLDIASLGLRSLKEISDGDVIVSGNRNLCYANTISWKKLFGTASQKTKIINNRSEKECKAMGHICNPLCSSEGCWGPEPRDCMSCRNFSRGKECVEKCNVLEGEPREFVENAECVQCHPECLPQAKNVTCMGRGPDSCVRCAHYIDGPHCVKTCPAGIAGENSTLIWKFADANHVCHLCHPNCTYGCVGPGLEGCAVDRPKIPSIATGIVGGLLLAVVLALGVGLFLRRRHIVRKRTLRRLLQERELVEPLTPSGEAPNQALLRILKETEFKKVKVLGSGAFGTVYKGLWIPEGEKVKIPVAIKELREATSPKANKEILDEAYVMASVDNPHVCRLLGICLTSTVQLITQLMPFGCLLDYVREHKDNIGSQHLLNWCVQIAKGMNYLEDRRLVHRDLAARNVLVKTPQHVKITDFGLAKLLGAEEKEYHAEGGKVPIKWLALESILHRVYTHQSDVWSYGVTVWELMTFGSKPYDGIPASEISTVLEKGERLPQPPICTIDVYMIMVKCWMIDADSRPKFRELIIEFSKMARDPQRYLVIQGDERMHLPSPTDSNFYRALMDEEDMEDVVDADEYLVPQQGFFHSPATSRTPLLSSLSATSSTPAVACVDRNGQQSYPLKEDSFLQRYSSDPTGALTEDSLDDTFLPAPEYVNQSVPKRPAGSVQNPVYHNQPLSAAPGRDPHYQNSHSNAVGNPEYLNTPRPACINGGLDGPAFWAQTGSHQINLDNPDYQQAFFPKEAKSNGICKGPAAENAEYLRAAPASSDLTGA

Regarding `C[C@@H](O)[C@H](NC(=O)[C@H](CS)NC(=O)[C@H](Cc1ccc(O)cc1)NC(=O)[C@H](CC(N)=O)NC(=O)[C@@H](NC(=O)[C@@H](N)CCCCN)[C@@H](C)O)C(=O)N[C@@H](CCCCN)C(=O)N1CCC[C@H]1C(=O)N[C@@H](CCC(N)=O)C(=O)N[C@@H](CCCCN)C(=O)N[C@@H](CO)C(=O)N[C@@H](Cc1ccc(O)cc1)C(=O)O` [β101-112, Lys-Thr-Asn-Tyr-Cys-Thr-Lys-Pro-Gln-Lys-Ser-Tyr] (H-KTNYCTKPQKSY-OH), the EC50 (in general, the concentration at which the effect is half-maximal) in assay [1] was determined as 80 ± 9 µM; in assay [2], 106 ± 8.7 µM. Also, in assay [1], the “Inhibition of TSH binding to human thyroid membrane (in words)” value is “inhibit binding of TSH to human thyroid membrane”. Further, the “Inhibition of TSH-mediated cAMP generation (in words)” value in assay [3] is “effectively inhibit TSH-mediated cAMP generation”. In assay [4], the “Serum samples in which TSab-stimulated cAMP was significantly inhibited (p<0.05) / samples tested” value was 10/11. In addition, the “Inhibition of TSab-stimulated cAMP generation (in words)” value is listed as “significantly inhibited cAMP production” in assay [4] and “inhibitory effect” in assay [4] (listed as (III)).
`CC(C)C[C@H](N)C(=O)N[C@@H](CO)C(=O)N[C@@H](CS)C(=O)N[C@@H](CCCCN)C(=O)N[C@@H](CS)C(=O)NCC(=O)N[C@@H](CCCCN)C(=O)N[C@@H](CS)C(=O)N[C@@H](CC(N)=O)C(=O)N[C@H](C(=O)N[C@@H](CC(=O)O)C(=O)N[C@@H](Cc1ccc(O)cc1)C(=O)N[C@@H](CO)C(=O)N[C@@H](CC(=O)O)C(=O)N[C@@H](CS)C(N)=O)[C@@H](C)O` [β81-95, Leu-Ser-Cys-Lys-Cys-Gly-Lys-Cys-Asn-Thr-Asp-Tyr-Ser-Asp-Cys] (H-LSCKCGKCNTDYSDC-NH2; N-terminus assumed): in assay [1], the “Inhibition of TSH binding to human thyroid membrane (in words)” value is listed as “inhibit binding of TSH to human thyroid membrane”. Moreover, the “Inhibition of TSH-mediated cAMP generation (in words)” value in assay [3] is reported as “effectively inhibit TSH-mediated cAMP generation”. In addition, in assay [4], the “Serum samples in which TSab-stimulated cAMP was significantly inhibited (p<0.05) / samples tested” value was 10/11 and the “Inhibition of TSab-stimulated cAMP generation (in words)” value was “significantly inhibited cAMP production”. For the same compound, the “Inhibition of TSab-stimulated cAMP generation (in words)” value in assay [4] (listed as (II)) is given as “inhibitory effect”.
On to “EGF: purified murine epidermal growth factor, unlabeled”, for which the EC50 in assay [5] was 0.000252 µM.
Turning to `CC[C@H](C)[C@H](NC(=O)[C@H](Cc1c[nH]cn1)NC(=O)[C@H](CCSC)NC(=O)[C@@H](NC(=O)[C@H](Cc1ccc(O)cc1)NC(=O)[C@H](CCC(=O)O)NC(=O)[C@@H](NC(=O)[C@@H]1CCCN1C(=O)[C@@H](NC(=O)[C@H](CS)NC(=O)[C@@H](N)Cc1ccccc1)[C@@H](C)CC)[C@@H](C)O)[C@@H](C)O)C(=O)N[C@@H](CCC(=O)O)C(=O)N[C@@H](CCCNC(=N)N)C(=O)N[C@@H](CCCNC(=N)N)C(=O)N[C@@H](CCC(=O)O)C(N)=O` [β1-15, Phe-Cys-Ile-Pro-Thr-Glu-Tyr-Thr-Met-His-Ile-Glu-Arg-Arg-Glu] (H-FCIPTEYTMHIERRE-NH2; N-terminus assumed), the results for the concentration for a half-maximal effect (EC50) in assay [1] and in assay [2] were 331 ± 45 µM and 1160 ± 431 µM, respectively. Also, the “Inhibition of TSH-mediated cAMP generation (in words)” value in assay [3] is recorded as “effectively inhibit TSH-mediated cAMP generation”. Further, in assay [4], the “Serum samples in which TSab-stimulated cAMP was significantly inhibited (p<0.05) / samples tested” value was 12/12. For the same compound, the “Inhibition of TSab-stimulated cAMP generation (in words)” value in assay [4] is given as “significantly inhibited cAMP production”; in assay [4] (listed as (I)) it was “inhibitory effect”.
